Consider three compounds from US6239126A, “Arylpiperidine and aryl-1,2,5,6-tetra-hydropyridine urea derivatives” (American Home Products Corporation, priority 1999, dated 2001).

pIC50, pKi: −log10 of the molar value. Read-outs that look alike come from different tables or passages of the source.

For assay [1], the target named is T1, human 5HT1A receptor (Homo sapiens, UniProt P08908).
T1 construct: expressed in transfected cells; host or cells: CHO cells, stably transfected
T1 sequence (P08908 1-422): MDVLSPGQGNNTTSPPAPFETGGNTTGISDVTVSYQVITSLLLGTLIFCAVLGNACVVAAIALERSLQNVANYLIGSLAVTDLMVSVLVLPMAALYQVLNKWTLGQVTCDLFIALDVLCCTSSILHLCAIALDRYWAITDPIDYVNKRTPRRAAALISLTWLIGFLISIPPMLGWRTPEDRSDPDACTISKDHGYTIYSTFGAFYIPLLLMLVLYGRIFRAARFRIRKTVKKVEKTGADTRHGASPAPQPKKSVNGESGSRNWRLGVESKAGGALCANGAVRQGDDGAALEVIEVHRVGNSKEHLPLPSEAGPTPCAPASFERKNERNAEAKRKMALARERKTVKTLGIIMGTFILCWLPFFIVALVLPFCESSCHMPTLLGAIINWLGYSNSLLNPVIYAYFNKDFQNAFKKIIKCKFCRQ
Briefly: 5-HT1A Receptor Binding Assay (displacement of [^3 H] 8-OH-DPAT binding in CHO cells stably transfected with human 5HT1A receptor). Here is the method: High affinity for the serotonin 5-HT1A receptor was established by testing a compound's ability to displace [^3 H] 8-OH-DPAT binding in CHO cells stably transfected with human 5HT1A receptor. Stably transfected CHO cells are grown in DMEM containing 10% heat inactivated FBS and non-essential amino acids. Cells are scraped off the plate, transferred to centrifuge tubes, and washed twice by centrifugation (2000 rpm for 10 min., 4° C.) in buffer (50 mM Tris pH 7.5). The resulting pellets are aliquoted and placed at -80° C. On the day of assay, the cells are thawed on ice and resuspended in buffer. The binding assay is performed in a 96 well microtiter plate in a total volume of 250 μL. Non-specific binding is determined in the presence of […] 5-HT, final ligand concentration is 1.5 nM. Following a 30 minute incubation at room temperature, the reaction is terminated by the addition of ice cold buffer and rapid filtration through a GF/B filter presoaked for 30 minutes in 0.5% PEI. Compounds are initially tested in a single point assay to determine percent inhibition at […], and Ki values are determined for the active compounds.

The target of assay [2] is T1, human 5HT1A receptor. Briefly: 5-HT1A Receptor Intrinsic Activity Assay, agonist activity (cAMP in forskolin-treated CHO cells stably transfected with the human 5-HT1A receptor). It is filed as cell-based. The settings on record: read-out: cAMP Emax. Here is the method:
(§1) The intrinsic activity of compounds of the present invention was established by testing the claimed compounds ability to reverse the stimulation of cyclic adenosinemonophosphate (cAMP) in CHO cells stably transfected with the human 5-HT1A receptor.
(§2) Stably transfected CHO cells were grown in DMEM containing 10% heat inactivated FBS and non-essential amino acids. The cells are plated at a density of […] cells per well in a 24 well plate and incubated for 2 days in a CO2 incubator. On the second day, the media is replaced with 0.5 mL treatment buffer (DMEM +25 mM HEPES, 5 mM theophylline, 10 μM pargyline) and incubated for 10 minutes at 37° C. Wells are treated with forskolin (1 μM final concentration) followed immediately by the test compound (0.1 and 1 μM for initial screen) and incubated for an additional 10 minutes at 37° C. The reaction is terminated by removal of the media and addition of 0.5 mL ice cold assay buffer (supplied in the RIA kit). Plates are stored at -20° C. prior to assessment of cAMP formation by RIA. EC50 values are determined for the active test compounds. Compounds shown to have no agonist activities (Emax=0%) are further analyzed for their ability to reverse agonist induced activity. In separate experiments, 6 concentrations of antagonist are preincubated for 20 minutes prior to the addition of agonist and forskolin. Cells are harvested as described above. The cAMP kit is supplied by Amershan and the RIA is performed as per kit instructions, and calculations of IC50 performed by GraphPad Prism.

The target in assay [3] is T1, human 5HT1A receptor. In words: 5-HT1A Receptor Intrinsic Activity Assay, ability to reverse agonist induced activity (cAMP, CHO cells stably transfected with the human 5-HT1A receptor). As to conditions: reversal of agonist induced activity; 6 concentrations of antagonist preincubated 20 minutes prior to agonist and forskolin. Format: cell-based. Here is the method: as §1
as §2, with “The cAMP kit is supplied by Amershan and the RIA is performed as per kit instructions, and calculations of IC50 performed by GraphPad Prism.” left out

Where [4] appears, read: [^3 H] 8-OH-DPAT 1.5 nM, CHO cells, 30 minute incubation at room temperature, read-out: 5-HT1A binding Ki.
Where [5] appears, read: agonist activity, forskolin 1 μM, CHO cells, 10 minutes at 37° C.

With `COc1ccc(F)cc1C1CCN(C[C@@H](Cc2ccccc2)N(C)C(=O)NC2CCCCC2)CC1` [Example 1, 1-{(1R)-1-Benzyl-2-[4-(5-fluoro-2-methoxyphenyl)-piperidin-1-yl]-ethly}-1-3-cyclohexyl-1-methyl-urea], the negative-log Ki (pKi) in assay [1] (setting [4]) is 8.46. For the same compound, the Emax in assay [2] (setting [5]) was 0%. For the same compound, the pIC50 in assay [3] was 7.33.
Take `COc1ccc(F)cc1C1=CCN(C[C@@H](Cc2ccccc2)N(C)C(=O)N2CCOCC2)CC1` [Example 2, Morpholine-4-carboxylic acid {(1R)-1-benzyl-2-[4-(5-fluoro-2-methoxy-phenyl)-1,2,5,6-tetrahydro-4H-pyridin-1-yl]-ethyl}-methyl-amide]: the pKi in assay [1] is 7.58. In assay [2] (CHO), the maximum response (Emax) was 0%.
`COc1ccc(F)cc1C1=CCN(C[C@@H](Cc2ccccc2)N(C)C(=O)NC2CCCCC2)CC1` [Example 3, 1-{(1R)-1-Benzyl-2-[4-(5-fluoro-2-methoxy-phenyl)-1,2,5,6-tetrahydro-4H-pyridin-1-yl]-ethyl-}-3-cyclohexyl-1-methyl-urea]: in assay [1] (setting [4]), the negative logarithm of the Ki (pKi) was 8.46. Also, the Emax in assay [2] (setting [5]) was 0%. Also, the negative-log IC50 (pIC50) in assay [3] is 7.90.
